In patent US5089516A, “1-phenyl-3,5-pyrazolidinedione hydroxystyrene compounds which have tyrosine kinase inhibiting activity” (Kanegafuchi Kagaku Kogyo Kabushiki Kaisha, priority 1987, dated 1992):
In brackets after ≈: the same amount, converted by molar mass.

Tests used:
[1] = tested on: Staphylococcus aureus IFO 12732; assay: Antibacterial activity (MIC) against Staphylococcus aureus IFO 12732; assay type: cell-based; conditions: IFO12732, 37° C., 18 to 20 hours
Description: (§1) The antibacterial activity against Gram-positive bacteria of the compound of the present invention was measured according to a standard method of Nippon Kagaku Ryoho Gakkai [Nippon Kagaku Ryoho Gakkaishi (Journal of the Chemical therapy of Japan), 29, 76(1981)].
(§2) As for gram-positive bacteria, after cultivation in Meuller Hinton broth medium (made by Difco Co., Ltd.), there was prepared a bacterial suspension for inoculation containing about 10^6 of the bacteria per 1 ml of the Meuller Hinton broth medium. On the other hand, the test compound was added to Mueller Hinton agar medium (made by Difco Co., Ltd.) so as to give agar plate medium containing test samples which are twofold serial diluted. Then, the above-mentioned bacterial suspension for inoculation was streaked to each agar medium for about 2 cm with a looped nichrome wire (inner diameter: about 1 mm).
(§3) After that the each agar plate medium was cultured at 37° C. for 18 to 20 hours, the growth of the test bacteria was determined.

[2] = molecular target: T1, reverse transcriptase derived from Moloney-Murine Leukemia Virus (M-MLV) (Moloney murine leukemia virus, UniProt P03355); assay: Inhibiting activity against reverse transcriptase derived from M-MLV; assay type: biochemical; conditions: read-out: Inhibition rate (reverse transcriptase derived from M-MLV); for inhibition at 1 µM: 1 μM in the reaction mixture; for inhibition at 10 µM: 10 μM in the reaction mixture
T1 construct: reverse transcriptase derived from Moloney-Murine Leukemia Virus; purchased Pharmacia K. K
Description: There was found the following point by using reverse transcriptase derived from Moloney-Murine Leukemia Virus (hereinafter referred to as "M-MLV").
The compound of the present invention was dissolved in DMSO to give a 100 mM solution thereof. Then, the solution was diluted with distilled water containing DMSO to give a solution of the test compound having a defined concentration. A mixed ratio of DMSO and distilled water was adjusted so that the concentration of DMSO at this time is 10% by volume and a final concentration of DMSO at the beginning of a reaction is 1% by volume.
The thus prepared solution of the test compound was mixed with a solution containing 50 mM of Tris--HCl buffer (pH 8.3), 8 mM of MgCl2, 30 mM of NaCl, 50 mM of dithiothreitol (made by Wako Pure Chemical Industries Ltd.), 0.2 mM of thymidine-5'-triphosphate (made by Pharmacia K. K.) and 6 U/ml of reverse transciptase derived from M-MLV (made by Pharmacia K. K.), and preincubated at 37° C. for 30 minutes. After there was added thereto 10 μg/ml of polyadenylic acid (made by PL Biochemicals Co., Ltd.), 0.01 U/ml of oligodeoxy thymidylic acid (made by Pharmacia K. K.) and 10 μCi/ml of [methyl-^3 H] thymidine-5'-triphosphate (made by Amersham Japan Co., Ltd., 47 Ci/mmol) to give a reaction mixture, the mixture was further incubated at 37° C. for 30 minutes, followed by cooling with ice to stop the reaction.
The radioactivity incorporated into deoxyribonucleic acids was measured according to the method of Linteril et al (Science 170, 447 to 449 (1967)). A defined volume of the reaction mixture was soaked into DE-81 filter paper (made by Whatman Ltd.), the filter paper was washed with 5% by weight of Na2 HPO4 solution for three times, and with distilled water and ethanol successively, and then dried. Radioactivity contained in the filter paper was measured by liquid scintillation counter to give the each radioactivity of the test solution groups.
On the other hand, the same procedure as above was carried out using DMSO-distilled water without the test compound instead of using the test solution, to give the value of radioactivity of a control group.
Reverse transcriptase derived from M-MLV inhibition rate (%) was calculated by the following equation. [formula]

[3] = tested on: Bacillus subtilis IFO 3134; assay: Antibacterial activity (MIC) against Bacillus subtilis IFO 3134; assay type: cell-based; conditions: IFO3134, 37° C., 18 to 20 hours
Description: as §1, §2, §3

[4] = tested on: antigen-induced airway constriction; assay: Inhibitory activity against antigen-induced airway constriction in actively sensitized guinea pigs; assay type: in vivo; conditions: Cavia porcellus, read-out: Inhibition rate (airway constriction)
Description: (3) Inhibitory activity against antigen-induced airway constriction in actively sensitized guinea pigs
That is, the sensitized guinea pigs (5 guinea pigs/group) were provided with artificial respiration by inserting a tracheal cannula under urethane anesthesia (1.5 g/kg body weight, intraperitoneal administration), and then, gallamine at 1 mg/kg body weight was injected intravenously to stop spontaneous respiration of the guinea pigs. Inhalation of 0.5% aqueous solution of ovalbumin was conducted using a nebulizer for 1 minute to increase antigen-induced airway constriction, at the same time, airway pressure was recorded through a transducer. Test compound was administered into jugular vein (i.v.) of the guinea pig 3 minutes before the antigen inhalation or administered orally (p.o.) 2 hours before the antigen inhalation. As a positive control compound, theophylline which was a drug for anti-asthma was used. The effect of the compound was estimated by calculating the maximum value of airway constriction (%) in comparison with the control group, according to the following equation. [formula]

[5] = tested on: Nycobacterium smegmatis ATCC 607; assay: Antibacterial activity (MIC) against acid-fast bacteria; assay type: cell-based; conditions: 37° C., 40 to 42 hours
Description: As for acid-fast bacteria, after cultured in glycerol broth medium, there was prepared a bacterial suspension for inoculation containing about 10^6 of the bacteria per 1 ml of the medium. On the other hand, there were prepared some glycerol Czapek agar plating media with adding the test compounds, and thereto the bacterial suspension for inoculation was streaked.

[6] = tested on: antigen-induced anaphylactic shock death; assay: Protecting effect against antigen-induced anaphylactic shock death in actively sensitized guinea pigs; assay type: in vivo, male guinea pigs; conditions: Cavia porcellus, 1.5 h, oral, 30 minutes before antigen inhalation
Description: (2) Protecting effect against antigen-induced anaphylactic shock death in actively sensitized guinea pigs
Anaphylactic shock death caused by inhalation of antigen was observed according to John P. Devlin Pulmonary and Antiallergic Drugs, John Wiley & Sons, (1985)] employing actively sensitized guinea pigs.
Each 100 mg/kg of body weight ovalbumin dissolved in physiological saline was injected into gluteus and into peritoneal cavity of male guinea pigs weighing 250 to 350 g. Three days later, the animals were further injected intraperitoneally with ovalbumin (100 mg/kg body weight) to conduct booster. Those animals were employed for testing 3 to 4 weeks after the sensitization.
In each group, 4 or more actively sensitized guinea pigs were pretreated by subcutaneously injecting pyrilamine (1 mg/kg body weight) 30 minutes before antigen inhalation to suppress histamine-dependent response and propranolol (1 mg/kg body weight) to enhance the response induced by other than histamine 10 minutes before the antigen inhalation.
The animal was placed in a desiccator with a capacity of about […] and 0.5% aqueous solution of ovalbumin in the state of aerosol was inhaled with ultrasonic type nebulizer for five minutes. Anaphylactic shock death was observed and the animals survived for 90 minutes or more after antigen inhalation were estimated to be protected. All the animals of the control group died due to anaphylactic shock. The compounds of the present invention and therapeutic antiasthmatic agent (tranilast, theophylline) were administered orally 30 minutes before the antigen inhalation.

[7] = iv, 3 minutes before antigen inhalation

| Structure (SMILES) | inhibition at 1 µM [2] | inhibition in vivo at 1 mg/kg [4, 7] | inhibition at 10 µM [2] | MIC [5] | other results |
| --- | --- | --- | --- | --- | --- |
| O=C1NC(=S)SC1=Cc1cc(Cc2ccccc2)c(O)c(Cc2ccccc2)c1 [Compound 2] | 95% |  |  |  | MIC [1]: 12 µg/mL (≈ 28.7 µM); MIC [3]: ≤ 6 µg/mL |
| O=C1NC(=S)SC1=Cc1cc(O)c(O)c(CSc2ccccc2)c1 [Compound 7] | 98% | 25% |  |  |  |
| O=C1NC(=S)SC1=Cc1cc(CSc2ccccc2)c(O)c(OCc2ccccc2)c1 [Compound 8] | 98% | 43% |  |  |  |
| CCCCOc1cc(C=C2SC(=S)NC2=O)cc(CSc2ccccc2)c1O [Compound 9] | 73% | 20% |  |  |  |
| CCCCOc1cc(C=C2SC(=S)NC2=O)cc(Cc2ccccc2)c1O [Compound 10] |  |  | 61% |  |  |
| O=C1Nc2ccccc2C1=Cc1cc(O)c(O)c(CSc2ccccc2)c1 [Compound 11] | 94% | 52% |  |  | MIC [1]: 25 µg/mL (≈ 66.6 µM); inhibition in vivo at 30 mg/kg ([4]; po, 30 mg/kg, 2 hours before antigen inhalation): 26%; MIC [3]: ≤ 6 µg/mL |
| O=C1NN(c2ccccc2)C(=O)C1=Cc1cc(Cc2ccccc2)c(O)c(Cc2ccccc2)c1 [Compound 20] |  |  | 97% |  | MIC [1]: 100 µg/mL (≈ 217 µM); MIC [3]: 50 µg/mL (≈ 109 µM) |
| O=C1NN(c2ccccc2)C(=O)C1=Cc1cc(O)c(O)c(Cc2ccccc2)c1 [Compound 24] | 91% |  |  |  |  |
| O=C1N=C(NCc2ccccc2)SC1=Cc1cc(Cc2ccccc2)c(O)c(Cc2ccccc2)c1 [Compound 26] |  | 68% | 76% |  |  |
| O=C1N=C(NCc2cccs2)SC1=Cc1cc(CSc2ccccc2)c(O)c(OCc2ccccc2)c1 [Compound 31] |  |  | 61% | ≤ 6 µg/mL |  |
| CC(C)c1cc(C=C2SC(NCc3ccccc3)=NC2=O)cc(C(C)C)c1O [Compound 33] |  |  |  | ≤ 15 µg/mL | inhibition in vivo at 2 mg/kg ([4]; iv, 2 mg/kg, 3 minutes before antigen inhalation): 26% |
| CC(C)c1cc(C=C2SC(NCc3ccc(F)cc3)=NC2=O)cc(C(C)C)c1O [Compound 35] |  |  |  | 15 µg/mL (≈ 36.4 µM) | responders at 10 mg/kg [6]: 50% |
| CC(C)c1cc(C=C2SC(NCc3ccc(Cl)c(Cl)c3)=NC2=O)cc(C(C)C)c1O [Compound 37] |  | 21% |  |  | responders at 100 mg/kg [6]: 25% |
| Cc1ccc(CNC2=NC(=O)C(=Cc3cc(C(C)C)c(O)c(C(C)C)c3)S2)cc1 [Compound 39] |  | 59% |  |  | responders at 100 mg/kg [6]: 25% |
| CC(C)c1cc(C=C2SC(NCc3ccc(S(N)(=O)=O)cc3)=NC2=O)cc(C(C)C)c1O [Compound 41] |  |  |  | 25 µg/mL (≈ 52.8 µM) | responders at 10 mg/kg [6]: 25%; MIC [1]: 50 µg/mL (≈ 106 µM); MIC [3]: 25 µg/mL (≈ 52.8 µM) |
| CC(C)c1cc(C=C2SC(NCc3ccc(N)cc3)=NC2=O)cc(C(C)C)c1O [Compound 42] |  |  | 50% | ≤ 15 µg/mL | inhibition in vivo at 5 mg/kg ([4]; iv, 5 mg/kg, 3 minutes before antigen inhalation): 33% |
